Experimental findings from patent publication US10023570B2 (Array BioPharma, Inc., priority 2015, dated 2018) are described below.

The target of experiment [1] is N-terminal GST tagged recombinant human RET cytoplasmic domain (aa 658-end), wild type RET kinase (Homo sapiens (Human), UniProt P07949). Description: RET Enzyme Assay (HTRF KinEASE-TK), wild type RET. Type of experiment: biochemical. The following applies: wild type RET, 1 mM ATP.
Experiment [2] concerns the target human KDR protein in HEK-293 cells (Homo sapiens (Human), UniProt P35968). Description: KDR Cell Assay (phospho-KDR in HEK-293 cells expressing inducible KDR). The conditions noted are these: pKDR Cell HEK 10% FBS IC50, HEK-293 cells expressing inducible KDR, VEGF stimulated. Type of experiment: cell-based. In outline: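 HEK-293 cells with inducible human KDR were treated with compound for 1 h in DMEM (0.25% DMSO final), then lysed. Phospho-KDR was quantified by Meso Scale immunoassay, expressed as percent of control, and IC50 taken where a 4-parameter logistic fit crossed 50 POC.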

Experiment [3] has as its target Kif5b-RET fusion protein in HEK-293 cells (Homo sapiens, UniProt P07949). Put plainly: cell-based.
Setting [4] is: HEK-293 cells expressing Kif5b-RET, read-out: KIF5B-RET pTYR1062 Cell IC50.

Usually IC50 stands for the concentration at which inhibition is half-maximal.

Read-outs that look alike come from different tables or passages of the source.

Chain of human KDR protein in HEK-293 cells (P35968 20-1356): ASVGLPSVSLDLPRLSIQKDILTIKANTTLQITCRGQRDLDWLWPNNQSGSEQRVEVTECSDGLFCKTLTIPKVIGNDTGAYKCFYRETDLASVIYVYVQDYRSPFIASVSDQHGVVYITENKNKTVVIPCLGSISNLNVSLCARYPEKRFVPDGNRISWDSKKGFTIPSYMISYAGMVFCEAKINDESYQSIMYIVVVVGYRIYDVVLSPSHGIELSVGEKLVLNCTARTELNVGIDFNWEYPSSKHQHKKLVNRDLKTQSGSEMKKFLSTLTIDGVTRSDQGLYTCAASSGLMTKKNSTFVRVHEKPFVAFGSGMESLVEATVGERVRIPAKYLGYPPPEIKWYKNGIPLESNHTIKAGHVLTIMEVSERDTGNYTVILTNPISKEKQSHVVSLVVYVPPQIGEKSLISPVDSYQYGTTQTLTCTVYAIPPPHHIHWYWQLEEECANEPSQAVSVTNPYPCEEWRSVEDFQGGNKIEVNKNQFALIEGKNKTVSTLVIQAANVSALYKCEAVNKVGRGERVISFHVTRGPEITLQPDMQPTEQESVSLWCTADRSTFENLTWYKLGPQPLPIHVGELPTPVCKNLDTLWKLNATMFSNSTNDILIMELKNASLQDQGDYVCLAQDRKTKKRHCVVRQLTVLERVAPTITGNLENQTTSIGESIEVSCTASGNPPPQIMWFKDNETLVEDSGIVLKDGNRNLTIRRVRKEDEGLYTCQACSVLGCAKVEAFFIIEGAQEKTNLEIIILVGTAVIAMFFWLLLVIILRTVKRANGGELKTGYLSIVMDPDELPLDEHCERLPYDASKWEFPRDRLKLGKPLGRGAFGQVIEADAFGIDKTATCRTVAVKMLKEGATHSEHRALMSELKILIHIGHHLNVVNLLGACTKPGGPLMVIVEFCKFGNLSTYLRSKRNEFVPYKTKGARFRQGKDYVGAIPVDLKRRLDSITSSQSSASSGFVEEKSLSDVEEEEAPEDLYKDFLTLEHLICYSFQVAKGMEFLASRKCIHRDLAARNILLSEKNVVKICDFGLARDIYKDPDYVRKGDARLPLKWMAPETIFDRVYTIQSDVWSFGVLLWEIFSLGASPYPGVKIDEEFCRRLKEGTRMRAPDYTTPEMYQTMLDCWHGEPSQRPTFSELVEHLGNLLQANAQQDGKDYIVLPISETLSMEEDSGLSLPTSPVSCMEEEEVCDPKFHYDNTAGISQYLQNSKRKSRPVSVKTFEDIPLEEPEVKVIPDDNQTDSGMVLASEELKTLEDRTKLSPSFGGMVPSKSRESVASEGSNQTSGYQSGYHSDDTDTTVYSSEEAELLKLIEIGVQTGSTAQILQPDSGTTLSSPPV
Chain of N-terminal GST tagged recombinant human RET cytoplasmic domain (aa 658-end), wild type RET kinase (P07949 658-1114): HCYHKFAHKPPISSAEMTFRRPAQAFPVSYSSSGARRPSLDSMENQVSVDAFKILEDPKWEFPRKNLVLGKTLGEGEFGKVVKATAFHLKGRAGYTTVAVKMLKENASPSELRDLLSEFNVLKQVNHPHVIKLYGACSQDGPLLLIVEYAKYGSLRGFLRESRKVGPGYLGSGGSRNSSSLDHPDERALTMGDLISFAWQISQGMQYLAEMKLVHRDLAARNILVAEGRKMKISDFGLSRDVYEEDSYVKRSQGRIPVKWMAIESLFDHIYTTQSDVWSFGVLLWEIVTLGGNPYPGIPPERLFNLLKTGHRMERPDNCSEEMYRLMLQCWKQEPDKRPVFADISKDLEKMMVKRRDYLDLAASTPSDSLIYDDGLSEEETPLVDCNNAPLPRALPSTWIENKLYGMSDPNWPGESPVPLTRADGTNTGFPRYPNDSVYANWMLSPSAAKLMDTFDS
Chain of Kif5b-RET fusion protein in HEK-293 cells (P07949 29-1114 limits assumed): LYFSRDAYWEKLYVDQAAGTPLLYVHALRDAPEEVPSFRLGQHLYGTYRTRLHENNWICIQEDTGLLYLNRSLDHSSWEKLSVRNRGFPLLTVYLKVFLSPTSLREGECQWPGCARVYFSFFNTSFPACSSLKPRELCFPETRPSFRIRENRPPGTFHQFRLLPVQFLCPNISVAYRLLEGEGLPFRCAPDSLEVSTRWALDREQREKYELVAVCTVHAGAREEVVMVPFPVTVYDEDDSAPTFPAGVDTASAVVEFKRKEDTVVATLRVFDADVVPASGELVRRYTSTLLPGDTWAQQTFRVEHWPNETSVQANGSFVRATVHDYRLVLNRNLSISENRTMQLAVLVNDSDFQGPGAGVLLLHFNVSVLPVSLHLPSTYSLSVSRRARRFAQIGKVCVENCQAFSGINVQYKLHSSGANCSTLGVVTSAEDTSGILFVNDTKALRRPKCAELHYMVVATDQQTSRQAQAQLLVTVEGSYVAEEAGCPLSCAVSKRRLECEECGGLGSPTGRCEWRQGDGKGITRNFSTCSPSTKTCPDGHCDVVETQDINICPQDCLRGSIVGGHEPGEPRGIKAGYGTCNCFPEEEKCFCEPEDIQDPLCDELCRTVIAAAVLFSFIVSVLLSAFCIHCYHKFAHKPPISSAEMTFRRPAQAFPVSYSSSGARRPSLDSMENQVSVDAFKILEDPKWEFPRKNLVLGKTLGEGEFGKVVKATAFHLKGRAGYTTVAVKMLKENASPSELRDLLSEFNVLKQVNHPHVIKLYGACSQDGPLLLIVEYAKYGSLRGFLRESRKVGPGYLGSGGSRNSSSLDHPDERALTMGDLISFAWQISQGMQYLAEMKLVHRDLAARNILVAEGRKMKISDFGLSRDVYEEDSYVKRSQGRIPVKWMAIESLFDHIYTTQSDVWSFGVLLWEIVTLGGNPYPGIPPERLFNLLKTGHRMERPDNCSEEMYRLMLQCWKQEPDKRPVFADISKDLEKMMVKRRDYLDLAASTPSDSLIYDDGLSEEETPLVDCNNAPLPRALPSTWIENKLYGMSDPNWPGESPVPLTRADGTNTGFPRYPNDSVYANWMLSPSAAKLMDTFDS

Turning to `CCn1cc(-c2cc(-c3ccc(N4CCN(Cc5ccccc5)CC4)nc3)c3c(C#N)cnn3c2)c(C)n1` [Example 609, 4-(6-(4-benzylpiperazin-1-yl)pyridin-3-yl)-6-(1-ethyl-3-methyl-1H-pyrazol-4-yl)pyrazolo[1,5-a]pyridine-3-carbonitrile], the IC50 in experiment [1] is 16.5 nM; in experiment [2], 1980 nM; in experiment [3] it was 31.5 nM.

With `CCc1nn(C)cc1-c1cc(-c2ccc(N3CCN(Cc4ccccc4)CC3)nc2)c2c(C#N)cnn2c1` [Example 610, 4-(6-(4-benzylpiperazin-1-yl)pyridin-3-yl)-6-(3-ethyl-1-methyl-1H-pyrazol-4-yl)pyrazolo[1,5-a]pyridine-3-carbonitrile], the IC50 in experiment [1] was 48.1 nM; in experiment [2], 4440 nM; in experiment [3] (setting [4]), 109 nM.

With `CC(C)n1cc(-c2cc(-c3ccc(N4CCN(Cc5ccccc5)CC4)nc3)c3c(C#N)cnn3c2)cn1` [Example 611, 4-(6-(4-benzylpiperazin-1-yl)pyridin-3-yl)-6-(1-isopropyl-1H-pyrazol-4-yl)pyrazolo[1,5-a]pyridine-3-carbonitrile], the IC50 in experiment [1] was found to be 11.9 nM; in experiment [2], 298 nM; in experiment [3] it was 2.5 nM.

With `CC(C)Cn1cc(-c2cc(-c3ccc(N4CCN(Cc5ccccc5)CC4)nc3)c3c(C#N)cnn3c2)cn1` [Example 612, 4-(6-(4-benzylpiperazin-1-yl)pyridin-3-yl)-6-(1-isobutyl-1H-pyrazol-4-yl)pyrazolo[1,5-a]pyridine-3-carbonitrile], the IC50 in experiment [1] worked out at 38.2 nM; in experiment [2] it was 431 nM; in experiment [3] (setting [4]), 5.2 nM.

Regarding `Cc1nn(C(C)C)cc1-c1cc(-c2ccc(N3CCN(Cc4ccccc4)CC3)nc2)c2c(C#N)cnn2c1` [Example 614, 4-(6-(4-benzylpiperazin-1-yl)pyridin-3-yl)-6-(1-isopropyl-3-methyl-1H-pyrazol-4-yl)pyrazolo[1,5-a]pyridine-3-carbonitrile], the figures for the IC50 in experiment [1], in experiment [2] and in experiment [3] were 22.2 nM, 2300 nM and 17 nM, respectively.

As for `CC(C)CC(=O)N1CCN(c2ccc(-c3cc(-c4cnn(C)c4)cn4ncc(Cl)c34)cn2)CC1` [Example 646, 1-(4-(5-(3-chloro-6-(1-methyl-1H-pyrazol-4-yl)pyrazolo[1,5-a]pyridin-4-yl)pyridin-2-yl)piperazin-1-yl)-3-methylbutan-1-one], the IC50 in experiment [1] worked out at 15.6 nM; in experiment [2], 1960 nM; in experiment [3] (setting [4]), 45.7 nM.

Consider `COc1ccc(CN2CCN(c3ccc(-c4cc(-c5cnn(C[C@@H](C)O)c5)cn5ncc(C#N)c45)cn3)CC2)cn1` [Example 700, (R)-6-(1-(2-hydroxypropyl)-1H-pyrazol-4-yl)-4-(6-(4-((6-methoxypyridin-3-yl)methyl)piperazin-1-yl)pyridin-3-yl)pyrazolo[5-a]pyridine-3-carbonitrile], for which the results for the half-inhibitory concentration (IC50) in experiment [1], in experiment [2] and in experiment [3] (setting [4]) were 16.8 nM, 347 nM and 5.3 nM, respectively.
